Peptide text beside a SMILES is read from it. * marks the point of attachment. NH(4-MeO-2-naphthyl) = COc1cc(N*)cc2ccccc12; βNA = c1ccc2cc(N*)ccc2c1; Cbz = O=C(OCc1ccccc1)*; Bz = O=C(c1ccccc1)*
Tests used:
trichomonal hydrolases [1] = assay: Experiment 13: hydrolysis of peptide substrates by trichomonal hydrolases at low pH, no vaginal fluid; format: biochemical, Trichomonas vaginalis; parameters: key: −: No red color produced; +: Clearly visible red color produced; ++: Moderately intense red color produced; +++: Very intense red color produced; conditions: without vaginal fluid; threonine buffer pH 2.4; 2 mM substrate solution; 10 min 25° C.; Fast Garnet
Protocol: Forty μL of each substrate was pipetted into duplicate wells of a microtiter plate. The plate was covered with tape, placed into a 25° C. incubator, and allowed to warm. A diluted enzyme mixture was prepared by mixing one part (v/v) freshly-thawed trichomonal hydrolase solution to nine parts 2 mM L-cysteine solution. Forty μL of this mixture was added to one well of each pair of duplicate wells. For negative controls, 40 μL of 2 mM L-cysteine was added to the second well in each pair of duplicate wells. The plate was returned to the incubator and incubated for ten minutes. Forty μL of SDS/acetate solution was added to each well, followed by 40 μL of Fast Garnet solution. The intensity of color that developed in each well after five minutes was visually scored using the color scale presented in Table 13.1.

trichomonal hydrolases [2] = assay: Experiment 12: hydrolysis of ZRRR-MNA by trichomonal hydrolases in four buffers; format: biochemical, Trichomonas vaginalis; conditions: for Score: substrate ZRRR-MNA, Fast Red RL, 0-9 scale
Protocol: Fifty μL of each buffer solution, at pH 2.0, 2.2, 2.4, or 2.6, was pipetted into separate wells of a microtiter plate. Twenty-five μL of 8 mM ZRRR-MNA and 25 μL of 10% trichomonal hydrolase solution were added to each well, and 20 μL were then removed from each well for measurement of final pH. Ten minutes after the mixtures were made, a Dacron swab was inserted into each well to absorb the liquid, then each swab was rubbed on a Fast Red RL film. The intensity of pink color that developed on each swab after five minutes was visually scored in 0.5 unit increments using the 0-9 color scale presented in Table 11.1 of the preceding example.

[3] = pH 2.0 Buffer after mixing with substrate and trichomonal hydrolase solution
[4] = pH 2.2 Buffer after mixing with substrate and trichomonal hydrolase solution
[5] = pH 2.4 Buffer after mixing with substrate and trichomonal hydrolase solution
[6] = pH 2.6 Buffer after mixing with substrate and trichomonal hydrolase solution

Compound | Color Score (trichomonal hydrolases [1]) | other results
N[C@@H](Cc1c[nH]c2ccccc12)C(=O)Nc1ccc2ccccc2c1 [Trp-βNA] | − | 
COc1cc(NC(=O)C(CCCN=C(N)N)NC(=O)C2CCCN2)cc2ccccc12 (stereo not drawn) [Pro-Arg-MNA] | − | 
O=C(O)CC(O)C(=O)O (racemic) [DL-malic acid] |  | Score (trichomonal hydrolases [2]; pH 2.0 Buffer (100 mM)): 4.5; Final pH (trichomonal hydrolases [2]; [3]): pH 2.4; Score (trichomonal hydrolases [2]; pH 2.2 Buffer (100 mM)): 5.5; Final pH (trichomonal hydrolases [2]; [4]): pH 2.7; Score (trichomonal hydrolases [2]; pH 2.4 Buffer (100 mM)): 6.0; Final pH (trichomonal hydrolases [2]; [5]): pH 2.8; Score (trichomonal hydrolases [2]; pH 2.6 Buffer (100 mM)): 6.0; Final pH (trichomonal hydrolases [2]; [6]): pH 2.9
NCCCC[C@H](NC(=O)OCc1ccccc1)C(=O)Nc1ccc2ccccc2c1 [CBZ-Lys-βNA] | − | 
O=C(Nc1ccc2ccccc2c1)[C@@H]1CCCN1 [Pro-βNA] | − | 
CC[C@H](C)[C@H](N)C(=O)Nc1ccc2ccccc2c1 [Ile-βNA] | − | 
COc1cc(NC(=O)C(CC(C)C)NC(=O)C(Cc2ccccc2)NC(=O)CNC(=O)C(CCCNC(=N)N)NC(=O)OCc2ccccc2)cc2ccccc12 (stereo not drawn) [CBZ-Arg-Gly-Phe-Leu-MNA] (Cbz-RGFL-{NH(4-MeO-2-naphthyl)}; configuration not given here) | − | 
NC(N)=NCCC[C@H](N)C(=O)Nc1ccc2ccccc2c1 [Arg-βNA] | − | 
COc1cc(NC(=O)C(CO)NC(=O)C(N)Cc2cnc[nH]2)cc2ccccc12 (stereo not drawn) [His-Ser-MNA] | − | 
C[C@H](N)C(=O)N[C@@H](C)C(=O)Nc1ccc2ccccc2c1 [Ala-Ala-βNA] (H-Ala-Ala-βNA) | − | 
N=C(N)NCCC[C@H](NC(=O)[C@H](Cc1ccccc1)NC(=O)[C@@H]1CCCN1C(=O)c1ccccc1)C(=O)Nc1ccc2ccccc2c1 [BZ-Pro-Phe-Arg-βNA] (Bz-Pro-Phe-Arg-βNA) | − | 
N[C@@H](CO)C(=O)Nc1ccc2ccccc2c1 [Ser-βNA] | − | 
NCC(=O)N[C@@H](Cc1ccccc1)C(=O)Nc1ccc2ccccc2c1 [Gly-Phe-βNA] (H-Gly-Phe-βNA) | − | 
N=C(N)NCCC[C@H](NC(=O)[C@@H](N)CCCNC(=N)N)C(=O)Nc1ccc2ccccc2c1 [Arg-Arg-βNA] (H-Arg-Arg-βNA) | − | 
N[C@@H](Cc1ccccc1)C(=O)Nc1ccc2ccccc2c1 [Phe-βNA] | − | 
CC(C)[C@H](N)C(=O)Nc1ccc2ccccc2c1 [Val-βNA] | − | 
CC(C)C[C@H](N)C(=O)Nc1ccc2ccccc2c1 [Leu-βNA] | − | 
COc1cc(NC(=O)[C@@H]2CCCN2C(=O)CN)cc2ccccc12 [Gly-Pro-MNA] | − | 
COc1cc(NC(=O)C(CCCN=C(N)N)NC(=O)CN)cc2ccccc12 (stereo not drawn) [Gly-Arg-MNA] | − | 
COc1cc(NC(=O)C(N)CC(C)C)cc2ccccc12.Cl (stereo not drawn) [Leu-MNA] | − | 
Cbz-Arg-Arg-βNA | − | 
COc1cc(NC(=O)[C@@H](N)CCCN=C(N)N)cc2ccccc12 [Arg-MNA] | − | 
NC(N)=NCCCC(NC(=O)c1ccccc1)C(=O)Nc1ccc2ccccc2c1 (racemic) [BZ-DL-Arg-βNA] | − | 
COc1cc(NC(=O)C(CCCNC(=N)N)NC(=O)C(C)NC(=O)C(CCC(N)=O)NC(=O)OC(C)(C)C)cc2ccccc12 (stereo not drawn) [BOC-Gln-Ala-Arg-MNA] | − | 
COc1cc(NC(=O)C(CCCNC(=N)N)NC(=O)OCc2ccccc2)cc2ccccc12 (stereo not drawn) [CBZ-Arg-MNA] | − | 
COc1cc(NC(=O)[C@H](CCCNC(=N)N)NC(=O)c2ccccc2)cc2ccccc12 [BZ-Arg-MNA] | − | 
NCC(=O)O [Glycine] |  | Score (trichomonal hydrolases [2]; pH 2.0 Buffer (100 mM)): 5.0; Final pH (trichomonal hydrolases [2]; [3]): pH 2.4; Score (trichomonal hydrolases [2]; pH 2.2 Buffer (100 mM)): 6.0; Final pH (trichomonal hydrolases [2]; [4]): pH 2.6; Score (trichomonal hydrolases [2]; pH 2.4 Buffer (100 mM)): 6.0; Final pH (trichomonal hydrolases [2]; [5]): pH 2.7; Score (trichomonal hydrolases [2]; pH 2.6 Buffer (100 mM)): 6.0; Final pH (trichomonal hydrolases [2]; [6]): pH 2.9

Compound | Color Score (trichomonal hydrolases [1]) | other results
O=C(Nc1ccc2ccccc2c1)[C@@H]1C[C@@H](O)CN1 [Hyp-βNA] | − | 
COc1cc(NC(=O)C(Cc2ccccc2)NC(=O)CNC(=O)C(N)CCC(N)=O)cc2ccccc12 (stereo not drawn) [Gln-Gly-Phe-MNA] | − | 
COc1cc(NC(=O)C(CCCNC(=N)N)NC(=O)C2CCCN2C(=O)CNC(=O)OCc2ccccc2)cc2ccccc12 (stereo not drawn) [CBZ-Gly-Pro-Arg-MNA] | − | 
CC(C)C[C@H](NC(=O)CNC(=O)CNC(=O)OCc1ccccc1)C(=O)Nc1ccc2ccccc2c1 [CBZ-Gly-Gly-Leu-βNA] (Cbz-Gly-Gly-Leu-βNA) | − | 
N[C@@H](Cc1cnc[nH]1)C(=O)Nc1ccc2ccccc2c1 [His-βNA] | − | 
NCCCC[C@H](N)C(=O)Nc1ccc2ccccc2c1 [Lys-βNA] | − | 
CSCC[C@H](NC(=O)[C@@H](N)CO)C(=O)Nc1ccc2ccccc2c1 [Ser-Met-βNA] (H-Ser-Met-βNA) | − | 
N[C@@H](CO)C(=O)N[C@@H](Cc1ccc(O)cc1)C(=O)Nc1ccc2ccccc2c1 [Ser-Tyr-βNA] (H-Ser-Tyr-βNA) | − | 
C[C@H](NC(=O)[C@@H](N)CCCCN)C(=O)Nc1ccc2ccccc2c1 [Lys-Ala-βNA] (H-Lys-Ala-βNA) | − | 
COc1cc(NC(=O)[C@@H](N)Cc2ccccc2)cc2ccccc12 [Phe-MNA] | − | 
CC(C)C[C@H](N)C(=O)N[C@@H](C)C(=O)Nc1ccc2ccccc2c1 [Leu-Ala-βNA] (H-Leu-Ala-βNA) | − | 
NCC(=O)N[C@@H](CCCN=C(N)N)C(=O)Nc1ccc2ccccc2c1 [Gly-Arg-βNA] (H-Gly-Arg-βNA) | − | 
CBZ-Val-Leu-Arg-MNA | + | 
C[C@H](N)C(=O)Nc1ccc2ccccc2c1 [Ala-βNA] | − | 
NCC(=O)N[C@@H](Cc1c[nH]c2ccccc12)C(=O)Nc1ccc2ccccc2c1 [Gly-Trp-βNA] (H-Gly-Trp-βNA) | − | 
COc1cc(NC(=O)[C@H](C)NC(=O)[C@H](C)NC(=O)[C@H](CCC(N)=O)NC(=O)OC(C)(C)C)cc2ccccc12 [BOC-Gln-Ala-Ala-MNA] | − | 
COc1cc(NC(=O)[C@H](CCCNC(=N)N)NC(=O)CNC(=O)CNC(=O)OCc2ccccc2)cc2ccccc12 [CBZ-Gly-Gly-Arg-MNA] | − | 
O=C(CNC(=O)OCc1ccccc1)NCC(=O)N[C@@H](Cc1ccccc1)C(=O)Nc1ccc2ccccc2c1 [CBZ-Gly-Gly-Phe-βNA] (Cbz-Gly-Gly-Phe-βNA) | − | 
Pro-MNA | − | 
NCC(=O)Nc1ccc2ccccc2c1 [Gly-βNA] | − | 
C[C@@H](O)[C@H](N)C(=O)O [L-threonine] |  | Score (trichomonal hydrolases [2]; pH 2.0 Buffer (100 mM)): 3.5; Final pH (trichomonal hydrolases [2]; [3]): pH 2.3; Score (trichomonal hydrolases [2]; pH 2.2 Buffer (100 mM)): 6.0; Final pH (trichomonal hydrolases [2]; [4]): pH 2.4; Score (trichomonal hydrolases [2]; pH 2.4 Buffer (100 mM)): 6.5; Final pH (trichomonal hydrolases [2]; [5]): pH 2.7; Score (trichomonal hydrolases [2]; pH 2.6 Buffer (100 mM)): 6.0; Final pH (trichomonal hydrolases [2]; [6]): pH 2.9
COc1cc(NC(=O)[C@H](CCCNC(=N)N)NC(=O)[C@H](CCCCN)NC(=O)[C@H](CCCCN)NC(=O)OCc2ccccc2)cc2ccccc12 [CBZ-Lys-Lys-Arg-MNA] | + | 
COc1cc(NC(=O)[C@H](CCCN=C(N)N)NC(=O)[C@H](CCCCN)NC(=O)[C@H](CCCCN)NC(=O)[C@@H](NC(=O)OCc2ccccc2)C(C)C)cc2ccccc12 [CBZ-Val-Lys-Lys-Arg-MNA] (Cbz-VKKR-{NH(4-MeO-2-naphthyl)}) | + | 
COc1cc(NC(=O)C(Cc2ccccc2)NC(=O)CN)cc2ccccc12 (stereo not drawn) [Gly-Phe-MNA] | − | 
COc1cc(NC(=O)[C@H](CCCNC(=N)N)NC(=O)[C@H](CCCNC(=N)N)NC(=O)[C@H](CC(C)C)NC(=O)OCc2ccccc2)cc2ccccc12 [CBZ-Leu-Arg-Arg-MNA] | + | 
NCC(=O)NCC(=O)Nc1ccc2ccccc2c1 [Gly-Gly-βNA] (H-Gly-Gly-βNA) | − | 
N=C(N)NCCC[C@H](NC(=O)[C@@H](N)Cc1ccccc1)C(=O)Nc1ccc2ccccc2c1 [Phe-Arg-βNA] (H-Phe-Arg-βNA) | − | 
